# In patent US20200010814A1, “NOVEL MONOOXYGENASE AND UTILIZATION THEREOF” (KANEKA CORPORATION, priority 2017, published 2020):
# Test system: pQAH1/pRAT1 Rhodococcus erythropolis L88
# Experiment: Evaluation of substrate specificity
# Format: cell-based
# Conditions: 10 mM substrate, 5% glucose, 26 hours of reaction; NMR and optical rotation analyses
# Method: pQAH1/pRAT1 Rhodococcus erythropolis L88 was cultured in an LB medium by a method similar to that for Example 5. Expression of a protein was induced with 0.2 μg/ml of thiostrepton, and then 10 mM of each of L-isovaline, D-isovaline, L-aminobutyrate, and D-aminobutyrate was added together with 5% glucose. After 26 hours of reaction, the reaction supernatant was analyzed by the LCMS analysis method used for Example 1.
row,SMILES,product of the hydroxylation reaction of the substrate
1,CC[C@@H](N)C(=O)O [D-aminobutyrate],D-allo-threonine
2,CC[C@@](C)(N)C(=O)O [D-isovaline],"(2R,3R)-2-methyl threonine"
3,CC[C@H](N)C(=O)O [L-aminobutyrate],L-allo-threonine
4,CC[C@](C)(N)C(=O)O [L-isovaline],"(2S,3S)-2-methyl threonine"
